Counter-ions that a name gives are not always drawn. Like-named read-outs stand apart in the source and are kept apart here.
Target: [^3 H]-mepyramine binding in brain homogenates (Rattus norvegicus, UniProt P31390)
Assay: biochemical
Conditions: read-out: (^3 H)mepyramine rating: molar concentration required to inhibit by 50% the binding of [^3 H]mepyramine
[1] = in vitro, brain homogenates, smaller numbers indicate greater potency

Chain of [^3 H]-mepyramine binding in brain homogenates (P31390 whole entry): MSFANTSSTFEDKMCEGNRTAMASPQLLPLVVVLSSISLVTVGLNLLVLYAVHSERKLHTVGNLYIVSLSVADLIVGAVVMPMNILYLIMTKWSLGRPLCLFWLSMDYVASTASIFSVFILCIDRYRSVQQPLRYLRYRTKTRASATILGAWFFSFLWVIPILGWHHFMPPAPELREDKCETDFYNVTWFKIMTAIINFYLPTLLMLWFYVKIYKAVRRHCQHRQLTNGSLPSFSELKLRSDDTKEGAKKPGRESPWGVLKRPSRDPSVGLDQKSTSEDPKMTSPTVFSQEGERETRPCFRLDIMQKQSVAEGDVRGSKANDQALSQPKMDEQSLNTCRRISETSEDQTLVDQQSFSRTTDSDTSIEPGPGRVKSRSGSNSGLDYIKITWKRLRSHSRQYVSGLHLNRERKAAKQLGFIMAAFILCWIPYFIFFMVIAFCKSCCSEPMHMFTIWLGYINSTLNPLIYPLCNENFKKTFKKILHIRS

IC50 [nM]	IC50 [1] [nM]	SMILES
–	2800	CN(C)C[C@@H]1NC[C@H](c2ccccc2)c2ccccc21 (relative stereo) [Example 2, 1,2,3,4-tetrahydro-1-dimethylaminomethyl-4-phenylisoquinoline dihydrochloride]
–	1800	CN(C)C[C@H]1c2ccccc2[C@@H](c2ccccc2)CN1C (relative stereo) [Example 3, 1,2,3,4-tetrahydro-2-methyl-1-dimethylaminomethyl-4-phenylisoquinoline dihydrochloride]

Continued, compound first:

SMILES	IC50 [nM]	IC50 [1] [nM]
CNC[C@@H]1NC[C@H](c2ccccc2)c2ccccc21 (relative stereo) [Example 1 cis form, cis-1,2,3,4-tetrahydro-1-methylaminomethyl-4-phenylisoquinoline dihydrochloride]	3500	–
CNC[C@@H]1NC[C@@H](c2ccccc2)c2ccccc21 (relative stereo) [Example 1 trans form, trans-1,2,3,4-tetrahydro-1-methylaminomethyl-4-phenylisoquinoline dihydrochloride]	78	–
CCNC[C@@H]1NC[C@H](c2ccccc2)c2ccccc21 (relative stereo) [Example 4, 1,2,3,4-tetrahydro-1-(ethylamino)methyl-4-phenylisoquinoline dihydrochloride]	–	> 1000

Source: patent US4518779A, “1,2,3,4-Tetrahydro-1-aminomethyl-4-phenyl isoquinolines” (Pennwalt Corporation, priority 1982, dated 1985)
